The subject of one test is human and rat GPR-14. Kind of test: Radioligand binding, [125I] h-U-II on HEK-293 cell membranes. As to conditions: radioligand binding assay; species of GPR-14 not given. Here is the method:
HEK-293 cell membranes containing stable cloned human and rat GPR-14 (20 ug/assay) were incubated with 200 pM [125I] h-U-II (200 Ci/mmol^−1 in the presence of increasing concentrations of test compounds in DMSO (0.1 nM to 10 uM), in a final incubation volume of 200 ul (20 mM Tris-HCl, 5 mM MgCl2). Incubation was done for 30 minutes at room temperature followed by filtration GF/B filters with Brandel cell harvester. ^125I labeled U-II binding was quantitated by gamma counting. Nonspecific binding was defined by ^125I U-II binding in the presence of 100 nM of unlabeled human U-II. Analysis of the data was performed by nonlinear least square fitting.

For the next test, the system named is rat-isolated aorta. Particulars: cited from earlier work.

In general, Ki refers to a dissociation constant, usually derived from enzyme kinetics or from competition with a known ligand.

Regarding `O=C(NC1CCN(Cc2ccc(OCCN3CCCC3)c3ccccc23)C1)c1ccc(Cl)c(Cl)c1` (centres unmarked) [Example 13], the affinity with human and rat GPR-14 corresponds to a Ki of 360 nM.

As for `CC(C)[C@H](NC(=O)[C@@H]1CSSC[C@H](NC(=O)[C@H](CC(=O)O)NC(=O)[C@@H]2CCCN2C(=O)[C@@H](NC(=O)[C@@H](N)CCC(=O)O)[C@@H](C)O)C(=O)N[C@@H](Cc2ccccc2)C(=O)N[C@@H](Cc2c[nH]c3ccccc23)C(=O)N[C@@H](CCCCN)C(=O)N[C@@H](Cc2ccc(O)cc2)C(=O)N1)C(=O)O` [Human Urotensin-II], in the test on rat-isolated aorta, the contractile activity result was “most potent contractile agonist identified to date”.

The record behind these values is patent publication US6544992B1, “Urotensin-II receptor antagonists” (SmithKline Beecham Corporation, priority 1999, dated 2003).
